Blank lines part the entries; values can stand above or below the molecule they belong to. Bridge positions count the residues as written; N and C are the ends. Square brackets hold non-standard residues; d marks the D form. Ends that are not written are not given here. Peptide text beside a SMILES is read from it. * marks the point of attachment. Biotin = O=C1N[C@H]2[C@H](CS[C@H]2CCCCC(=O)*)N1; Nle = CCCC[C@H](N)C(=O)O; Abu = CC[C@H](N)C(=O)O
Legend:
[1] = system: Jurkat E6.1 and HCT-116 cells; conditions: co-culture model with activated Jurkat E6.1 and HCT-116 cells; cited from earlier work
Experimental: (§1) To better examine the potency of the PD-L1-derived peptides at the cellular level, competitive assays and stimulation assays were performed. […] These differences in obtained results may be due to the fact that in SPR and ELISA, the peptide is immobilized to the surface of the sensor or the plate, while it is in the solution in cellular assays. Moreover, the immobilization of the peptide may ...

[2] = system: murine primary lymphocytes and Jurkat cells; conditions: cited from earlier work
Experimental: as §1

Solubility in water = type: physicochemical
From the text: To increase solubility, its sequence was elongated at the N- and C-terminals by adding hydrophilic amino acids from the protein sequence. […] These modifications were introduced to prevent the oxidation of methionine and cysteine.

PD-1 = molecular target: T1, PD-1 (Homo sapiens, UniProt Q15116); assay: SPR analysis: PD-1 titrated over immobilized biotinylated peptides or PD-L1; type: binding; conditions: SPR KD 198 µM versus 2.04 µM
T1 construct: purchased Recepton Company, Poland R1–001–03

PD-1/PD-L1 complex = molecular target: T2, PD-1/PD-L1 complex (Homo sapiens, UniProt Q15116); assay: PD-1 T cell NF-κB::eGFP reporter co-culture assay; type: cell-based; conditions: PD-1 reporter cells + TCS CD86/PD-L1; peptide 150.00-5.56 µM; 90 min preincubation, 24 h co-culture; flow cytometry; normalized to PD-1 reporter/TCS CD86
T2 construct: expressed in transfected cells

[3] = Peptide stability in RPMI 1640 medium with 10 % FBS; conditions: RPMI 1640 + 10 % heat-inactivated FBS; for Additional decrease in peptide content after 24 h of incubation: 37°C; for Stability in the medium: 0 and 24 h
Jurkat E6.1 cells = assay: Cell viability assay (CellTiter-Glo), Jurkat E6.1 cells; conditions: 24 h; for Effect on Jurkat E6.1 cells at lower concentrations: concentrations below the highest tested (150.00 to 5.56 µM range); for Number of living, metabolically active Jurkat E6.1 cells: highest tested concentration (150.00 µM), normalized to untreated cells, three experiments in triplicate
TCS Ctrl cells = assay: Cell viability assay (CellTiter-Glo), TCS Ctrl cells; type: cell-based; conditions: highest tested concentration, 24 h
PD-1 (Recepton) = molecular target: T3, PD-1 (Recepton) (human, UniProt Q15116 25-170); assay: SPR; Biacore T200; biotinylated peptides (~800 RU; L1 ~500 RU) or biotinylated PD-L1 immobilised on an SA sensor chip; PD-1 injected at 10 to 0.31 µM; PBS-P running buffer, 30 µl/min, 25°C; conditions: both partners purified
T3 construct: also called PD-1 protein; source: bought: Recepton Company, Poland, #R1–001–03

[4] = pH 8.0, 100 μM peptide, RP-HPLC

T3 sequence (Q15116 25-170): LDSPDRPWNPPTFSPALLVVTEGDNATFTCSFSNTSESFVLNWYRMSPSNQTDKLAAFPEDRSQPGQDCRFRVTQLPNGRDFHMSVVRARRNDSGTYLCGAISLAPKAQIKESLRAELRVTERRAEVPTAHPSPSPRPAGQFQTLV
T2 sequence (Q15116 25-288, one chain of several): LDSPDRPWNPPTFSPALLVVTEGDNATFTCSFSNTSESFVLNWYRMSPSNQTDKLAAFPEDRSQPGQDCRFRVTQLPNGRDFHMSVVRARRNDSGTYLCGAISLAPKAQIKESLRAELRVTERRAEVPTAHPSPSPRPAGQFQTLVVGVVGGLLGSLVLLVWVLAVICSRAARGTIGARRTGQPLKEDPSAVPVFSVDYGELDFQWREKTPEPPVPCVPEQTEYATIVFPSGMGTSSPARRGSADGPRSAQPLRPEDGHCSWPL
T1 sequence (Q15116 25-288): as the sequence (Q15116 25-288, one chain of several) above

Molecule: RTMIWYpGAWYKRI [Peptide P1.3, Wang et al. peptide with D-proline in the loop and a tryptophan zipper]
IL-2 secretion [1]: has the ability to restore IL-2 secretion

Molecule: GADYKRITVKVN [PL120131]
Apoptotic signal induced by sPD-L1 [2]: reverses the apoptotic signal

Molecule: CCCC[C@H](NC(=O)[C@H](CCC(=O)O)NC(=O)[C@H](Cc1c[nH]c2ccccc12)NC(=O)[C@H](Cc1ccc(O)cc1)NC(=O)[C@@H](NC(=O)[C@@H](NC(=O)[C@H](CC(C)C)NC(=O)[C@H](C)NC(C)=O)[C@@H](C)CC)C(C)C)C(=O)N[C@@H](CCC(=O)O)C(=O)N[C@@H](CC(=O)O)C(=O)N[C@@H](CCCCN)C(=O)N[C@@H](CC(N)=O)C(=O)N[C@H](C(=O)N[C@H](C(=O)N[C@@H](CCC(N)=O)C(=O)N[C@@H](Cc1ccccc1)C(=O)N[C@H](C(=O)N[C@@H](Cc1c[nH]cn1)C(=O)NCC(=O)N[C@@H](CCC(=O)O)C(=O)N[C@@H](CCC(=O)O)C(=O)N[C@@H](CC(=O)O)C(=O)N[C@@H](CC(C)C)C(=O)N[C@@H](CCCCN)C(=O)N[C@H](C(=O)N[C@@H](CCC(N)=O)C(=O)N[C@@H](Cc1c[nH]cn1)C(=O)N[C@@H](CO)C(N)=O)C(C)C)C(C)C)[C@@H](C)CC)[C@@H](C)CC [Peptide L4] (HELM PEPTIDE1{[ac].A.L.I.V.Y.W.E.[Nle].E.D.K.N.I.I.Q.F.V.H.G.E.E.D.L.K.V.Q.H.S.[am]}$$$$V2.0)
Solubility in water (Solubility in water): no positive effect on the solubility

KD of (L7) relative to (L11), fold weaker (PD-1): approximately 97 fold | Restoration of eGFP expression in the reporter assay (PD-1/PD-L1 complex): concentration-dependent effect
Molecule: CCCC[C@H](NC(=O)[C@H](CC)NC(=O)[C@H](CCCNC(=N)N)NC(=O)[C@H](Cc1ccc(O)cc1)NC(=O)[C@@H](NC(C)=O)C(C)C)C(=O)N[C@H](C(=O)N[C@@H](CO)C(=O)N[C@@H](Cc1ccc(O)cc1)C(=O)NCC(=O)NCC(=O)N[C@@H](C)C(=O)N[C@@H](CC(=O)O)C(=O)N[C@@H](Cc1ccc(O)cc1)C(=O)N[C@@H](CCCCN)C(=O)N[C@@H](CCCNC(=N)N)C(=O)N[C@H](C(=O)N[C@H](C(N)=O)[C@@H](C)O)[C@@H](C)CC)[C@@H](C)CC [Peptide L7] (HELM PEPTIDE1{[ac].V.Y.R.[Abu].[Nle].I.S.Y.G.G.A.D.Y.K.R.I.T.[am]}$$$$V2.0)

Restoration of eGFP expression in the reporter assay (PD-1/PD-L1 complex): concentration-dependent effect | Amount of peptide at 0 h, relative to control ([3]; pH 8.0, 100 μM peptide, 0 h, RP-HPLC peak area vs peptide in H2O at 0 h, three independent experiments): 88% | Additional decrease in peptide content after 24 h of incubation [3, 4]: 12% | Stability in the medium ([3]; RP-HPLC): least concentration fluctuation
Molecule: CC(=O)N[C@@H](C)C(=O)N[C@@H](CC(=O)O)C(=O)N[C@@H](Cc1ccc(O)cc1)C(=O)N[C@@H](CCCCN)C(=O)N[C@@H](CCCNC(=N)N)C(N)=O [Peptide L15] (Ac-ADYKR-NH2)

Molecule: CCCC[C@H](NC(=O)[C@H](CCC(=O)O)NC(=O)[C@H](Cc1c[nH]c2ccccc12)NC(=O)[C@H](Cc1ccc(O)cc1)NC(=O)[C@@H](NC(=O)[C@@H](NC(=O)[C@H](CC(C)C)NC(=O)[C@H](C)NC(C)=O)[C@@H](C)CC)C(C)C)C(=O)N[C@@H](CCC(=O)O)C(=O)N[C@@H](CC(=O)O)C(=O)N[C@@H](CCCCN)C(=O)N[C@@H](CC(N)=O)C(=O)N[C@H](C(=O)N[C@H](C(=O)N[C@@H](CCC(N)=O)C(=O)N[C@@H](Cc1ccccc1)C(=O)N[C@H](C(N)=O)C(C)C)[C@@H](C)CC)[C@@H](C)CC [Peptide L2] (HELM PEPTIDE1{[ac].A.L.I.V.Y.W.E.[Nle].E.D.K.N.I.I.Q.F.V.[am]}$$$$V2.0)
Solubility in water (Solubility in water): poorly soluble in water

Molecule: CCCC[C@@H]1NC(=O)[C@@H](NC(=O)[C@H](CCCNC(=N)N)NC(C)=O)CSSC[C@@H](C(=O)N[C@@H](CCCNC(=N)N)C(=O)N[C@H](C(N)=O)[C@@H](C)CC)NC(=O)[C@H](Cc2ccc(O)cc2)NC(=O)[C@H](CC(=O)O)NC(=O)[C@H](C)NC(=O)[C@H](Cc2ccccc2)NC(=O)CNC(=O)[C@H](Cc2ccc(O)cc2)NC(=O)[C@H](CO)NC(=O)[C@H]([C@@H](C)CC)NC1=O [Peptide L13]
Effect on Jurkat E6.1 cells at lower concentrations (Jurkat E6.1 cells): no negative effects at lower concentrations | Number of living, metabolically active Jurkat E6.1 cells (Jurkat E6.1 cells): 3%

Molecule: CCCC[C@H](NC(=O)[C@H](CCC(=O)O)NC(=O)[C@H](Cc1c[nH]c2ccccc12)NC(=O)[C@H](Cc1ccc(O)cc1)NC(=O)[C@@H](NC(=O)[C@@H](NC(=O)[C@H](CC(C)C)NC(=O)[C@H](C)NC(=O)[C@H](C)NC(=O)[C@H](CC(C)C)NC(=O)[C@H](CC(=O)O)NC(=O)[C@H](CC(C)C)NC(=O)[C@H](CCC(N)=O)NC(=O)[C@H](CCCCN)NC(=O)[C@H](CCC(=O)O)NC(C)=O)[C@@H](C)CC)C(C)C)C(=O)N[C@@H](CCC(=O)O)C(=O)N[C@@H](CC(=O)O)C(=O)N[C@@H](CCCCN)C(=O)N[C@@H](CC(N)=O)C(=O)N[C@H](C(=O)N[C@H](C(=O)N[C@@H](CCC(N)=O)C(=O)N[C@@H](Cc1ccccc1)C(=O)N[C@H](C(N)=O)C(C)C)[C@@H](C)CC)[C@@H](C)CC [Peptide L5] (HELM PEPTIDE1{[ac].E.K.Q.L.D.L.A.A.L.I.V.Y.W.E.[Nle].E.D.K.N.I.I.Q.F.V.[am]}$$$$V2.0)
Solubility in water (Solubility in water): no positive effect on the solubility

Decrease in the amount of peptide at 0 h compared to control ([3]; pH 8.0, 100 μM peptide, 0 h, RP-HPLC): approximately 10% | Additional decrease in peptide content after 24 h of incubation [3, 4]: ~11% | Stability in the medium ([3]; RP-HPLC): highest stability
Molecule: CCCC[C@@H]1NC(=O)[C@@H](NC(=O)[C@H](CCCNC(=N)N)NC(C)=O)CSSC[C@@H](C(=O)N[C@@H](CCCNC(=N)N)C(=O)N[C@H](C(N)=O)[C@@H](C)CC)NC(=O)[C@H](Cc2ccc(O)cc2)NC(=O)[C@H](CC(=O)O)NC(=O)[C@H](C)NC(=O)[C@H](CO)NC(=O)CNC(=O)[C@H](Cc2ccc(O)cc2)NC(=O)[C@H](CO)NC(=O)[C@H]([C@@H](C)CC)NC1=O [Peptide L12]
Effect on TCS Ctrl cell viability (TCS Ctrl cells): significant decrease in cell viability | Effect on Jurkat E6.1 cells at lower concentrations (Jurkat E6.1 cells): no negative effects at lower concentrations | Number of living, metabolically active Jurkat E6.1 cells (Jurkat E6.1 cells): 38%

Kd (PD-1 (Recepton)): 22 µM
B1: biotin-GGGGG-PD-L1(110–128)^(V111C-T127C) (L10) (peptide)
chain: Biotin-GGGGGGCYR[Abu][Nle]ISYGGADYKRICV
modifications: disulfide 7-23

Kd (PD-1 (Recepton)): 14.9 µM
B2: biotin-GGGGG-PD-L1(113–126) (L8) (peptide)
chain: Biotin-GGGGGR[Abu][Nle]ISYGGADYKRI

Kd (PD-1 (Recepton)): 198 µM
B3: biotin-GGGGG-PD-L1(111–127) (L7) (peptide)
chain: Biotin-GGGGGVYR[Abu][Nle]ISYGGADYKRIT
